Experimental data: patent publication US5444077A, “Ameliorant of cerebral circulation and optical isomer of NB-818, processes for its use” (Banyu Pharmaceutical Co., Ltd., priority 1987, dated 1995)

Tests used:
[1] = tested on: cerebral regional blood flow; test: Effect to increase the cerebral regional blood flow in rabbits (Pharmacological Test Example 2); type: in vivo, rabbit; details: 0.01 mg/kg, intravenous
Description: A male rabbit having a body weight of about 3 kg was immobilized by intravenous injection of gallamine (2-3 mg/kg) and secured to an apparatus for fixing the brain position. Then, platinum electrodes for measuring hydrogen gas clearance were inserted to the top of cerebral cortex, to the center of the cerebellum and to the femoral muscle, and the blood flows were measured. The drug was dissolved in a 0.9 wt % saline containing 10% by weight of polyethylene glycol and 10% by weight of ethanol, and the solution was intravenously injected.

vertebral artery = test: Effect to increase the blood flow of the vertebral artery in anesthetized beagle dogs (Pharmacological Test Example 1); type: in vivo, beagle dog
Description: Effect to increase the blood flow of the vertebral artery
A male or female beagle dog having a body weight of about 10 kg was anesthetized by subcutaneous administration of 35 mg/kg of sodium pentobarbital, and the level of anesthesia was maintained by continuous injection of from 4 to 6 mg/kg/hr of sodium pentobarbital.
The test was conducted by maintaining the blood gases under optimum conditions under artificial respiration. A drug was dissolved in a 0.9 wt % saline containing 10% by weight of polyethylene glycol and 10% by weight of ethanol, and a predetermined amount of the solution was intravenously or intraduodenally injected to the beagle dog. Then, the blood flow, the blood pressure and the heart rate were measured.
The blood flow was measured by an electromagnetic flow meter by means of blood flow probes attached to the vertebral artery and the femoral artery of the beagle dog. The blood pressure was measured by a pressure transducer connected to a canule inserted to the left femoral artery of the beagle dog.

[2] = tested on: cerebral regional blood flow; test: Effect to increase the cerebral regional blood flow in monkeys (Pharmacological Test Example 3); type: in vivo, Rhesus monkey; details: 0.01 mg/kg, intravenous
Description: Effect to increase the cerebral regional blood flow in monkeys
A male Rhesus monkey having a body weight of from 5.0 to 11.0 kg was anesthetized with ketamine hydrochloride (1 mg/kg by intravenous injection) and sodium pentobarbital (30 mg/kg by intraperitoneal injection), and an endotracheal tube was inserted for artificial respiration. Then, the animal's head was fixed to a stereotaxic apparatus. The cerebral blood flow was calculated from the hydrogen gas clearance curve measured by means of needle type electrodes for hydrogen gas clearance inserted to the cerebral cortex after incising the head and boring a hole in the occipital lobe.
The drug was dissolved in a 0.9 wt % saline containing 10% by weight of polyethylene glycol 300 and 10% by weight of ethanol, and the solution was intravenously administered.

[3] = tested on: cerebral isochemia models of Mongolian gerbils; test: Effect to prolong the life in the cerebral ischemia models of Mongolian gerbils (Pharmacological Test Example 4); type: in vivo, Mongolian gerbil; details: 0.01 mg/kg, intraperitoneal; control 100
Description: Effect to prolong the life in the cerebral isochemia models of Mongolian gerbils
A male Mongolian gerbil having a body weight of about 70 g was anesthetized by intraperitoneal administration of 70 mg/kg of ketamine hydrochloride. Then, left and right common carotid arteries were exposed and closed by scorbil clips for 20 minutes. Then, the clips were removed to regain the blood flow. Thirty minutes later, a drug dissolved in a 0.9 wt % saline containing 10% by weight of polyethylene glycol 300 and 10% by weight of ethanol, was intraperitoneally administered. The effect to prolong the life was determined by observing mortality and the neurotic symptom during 8 hours or 24 hours from the administration of the drug.

amnesia induced by ECS [4] = test: Effect against amnesia induced by ECS, passive avoidance, pretreatment with drug administration (Pharmacological Test Example 5); type: in vivo, rat; details: 3 mg/kg p.o.
From the text: (§1) By using male rats having a body weight of about 200 g, the antiamnesic effect was examined on the basis of one trial passive avoidance reaction as an index. Namely, a rat is put in a light chamber of an operant box comprising the light chamber and a dark chamber, and when the rat entered into the dark chamber, an electric stimulation (5 mA for 10 seconds) was applied from the floor and immediately an electric shock (30 mA, 0.75 second) (hereinafter referred to simply as ECS) was applied to the head of the rat. Two hours or 24 hours after the ECS, the rat was put in the light chamber, and the time until the rat entered from the light chamber to the dark chamber (the latent reaction time) was measured,
The drug was suspended in a 0.5 wt % methyl cellulose and orally administered three times at intervals of 24 hours so that the final administration was conducted one hour prior to ECS.

amnesia induced by ECS [5] = test: Effect against amnesia induced by ECS, passive avoidance, post-treatment with drug administration (Pharmacological Test Example 5); type: in vivo, rat; details: 1 mg/kg p.o.
From the text: as §1
In a separate test, the drug was orally administered at the same time as ECS, and the latent reaction time was measured two hours later, or NB-818 was again administered 22 hours later and then the latent reaction time was measured two hours later.

[6] = Acute toxicity (LD50) upon oral administration to rats; details: rat, in vivo
From the text: Thus, it is particularly advantageous for the treatment and prevention of the above diseases, for which continuous administration for a long period of time is obliged. Thus, its value as a pharmaceutical is very high.

**Q.** With COC(=O)C1=C(C)NC(COC(N)=O)=C(C(=O)OC(C)C)C1c1cccc(Cl)c1Cl (centres unmarked) [NB-818, 2-Carbamoyloxymethyl-4-(2,3-dichlorophenyl)-6-methyl-1,4-dihydropyridine-3,5-dicarboxylic acid 3-isopropyl ester 5-methyl ester] as the molecule, how does the “Blood flow change, cerebellum blood flow” value [1] read?
**A.** Its value is “+85%”.

**Q.** What about the “Blood flow change, cerebral blood flow” value [1] of the same molecule?
**A.** The value was “+82%”.

**Q.** What about the “Blood flow change, femoral muscle blood flow” value [1] of the same molecule?
**A.** Its value is “+3%”.

**Q.** And the “Effective period (Half-life period)” value [1]?
**A.** Its value is 44.6 min.

**Q.** And the “Change in blood pressure” value (vertebral artery; 0.01 mg/kg iv)?
**A.** Its value is -14%.

**Q.** And the “Change in femoral artery blood flow” value (vertebral artery; 0.01 mg/kg iv)?
**A.** The value was “+12%”.

**Q.** And the “Change in vertebral artery blood flow” value (vertebral artery; 0.01 mg/kg iv)?
**A.** Its value is “+109%”.

**Q.** And the “Effective period (Half-life period)” value (vertebral artery; 0.01 mg/kg iv)?
**A.** Its value is 57 min.

**Q.** And the “Change in blood pressure” value (vertebral artery; 0.1 mg/kg id (intraduodenal))?
**A.** Its value is -18%.

**Q.** What about the “Change in femoral artery blood flow” value (vertebral artery; 0.1 mg/kg id (intraduodenal)) of the same molecule?
**A.** Its value is “+36%”.

**Q.** And the “Change in vertebral artery blood flow” value (vertebral artery; 0.1 mg/kg id (intraduodenal))?
**A.** Its value is “+135%”.

**Q.** What about the “Effective period (Half-life period)” value (vertebral artery; 0.1 mg/kg id (intraduodenal)) of the same molecule?
**A.** The value was greater than 300 min.

**Q.** And the “influence over the blood pressure and the heart rate” value (vertebral artery; at dose level selectively increasing vertebral artery blood flow)?
**A.** Its value is “minimum”.

**Q.** And the “Change in blood pressure” value [2]?
**A.** The value was -20%.

**Q.** What about the “Change in cerebral cortex blood flow” value [2] of the same molecule?
**A.** The value was “+28%”.

**Q.** And the “Change in heart rate” value [2]?
**A.** The value was “+16%”.

**Q.** What about the “Effective period (Half-life period)” value [2] of the same molecule?
**A.** Its value is greater than 60 min.

**Q.** What about the “Mortality, 0-8 hours” value [3] of the same molecule?
**A.** The value was 38.5%.

**Q.** And the “Mortality, 0-24 hours” value [3]?
**A.** The value was 76.9%.

**Q.** And the “Latent reaction time, acquisition test” value (amnesia induced by ECS [4]; control 8.6 ± 1.3)?
**A.** Its value is 11.4 ± 1.3 s.

**Q.** And the “Latent reaction time, 2 hours later” value (amnesia induced by ECS [4]; control 49.2 ± 8.1, * P < 0.05 vs control)?
**A.** Its value is 128.8 ± 21.8 s.

**Q.** And the “Latent reaction time, 24 hours later” value (amnesia induced by ECS [4]; control 85.6 ± 22.0, * P < 0.05 vs control)?
**A.** The value was 189.6 ± 24.6 s.

**Q.** What about the “Latent reaction time, acquisition test” value (amnesia induced by ECS [5]; control 9.0 ± 1.5) of the same molecule?
**A.** The value was 8.3 ± 1.2 s.

**Q.** And the “Latent reaction time, 2 hours later” value (amnesia induced by ECS [5]; control 30.6 ± 3.0, * P < 0.05 vs control)?
**A.** The value was 88.5 ± 17.9 s.

**Q.** What about the “Latent reaction time, 24 hours later” value (amnesia induced by ECS [5]; control 42.5 ± 9.0, * P < 0.05 vs control) of the same molecule?
**A.** The value was 111.8 ± 21.5 s.

**Q.** And the LD50 [6]?
**A.** Its LD50 is no less than 3000 mg/kg.
